From patent US20220332839A1, “USE OF PRG4 TO TREAT CANCER” (Lubris LLC, priority 2019, published 2022)
Values belong to the molecule of their own block, whether it stands above or below them.

Key:
[1] = test system: MDA-MB-231 cell-derived organoids; experiment: Three-dimensional Matrigel culture, proportion of spherical vs invasive organoids; assay type: cell-based, human; conditions: for TGFβ-induced invasive growth of organoids: rhPRG4 0.1, 10, 100 μg/mL, 4-MU 0.5 mM
Procedure: For three-dimensional culture assays, 50 μl of ice-cooled 33% growth factor-reduced Matrigel (Corning Incorporated, USA) in complete growth medium, consisting of DMEM containing 10% FBS, penicillin, streptomycin and amphotericin B (Invitrogen, Canada), was added per well of a 96-well flat bottom, ultra-low attachment plate (BD Biosciences, Canada) followed by storing the plate for 1 hour in a 5% CO2 humidified incubator at 37° C. to allow formation of a 1 mm-thick Matrigel bed in the well. Next, approximately 400 isolated MDA-MB-231 cells, suspended in 50 μl ice-cooled 50% Matrigel in complete growth medium, were layered on top of the Matrigel bed per well of the 96-well plate and incubated inside 5% CO2 humidified incubator at 37° C. One hour post addition and 37° C. incubation of Matrigel-cells suspension, 50 μl of complete growth medium was added to cover the solidified Matrigel-cells mixture. The following day and, every third day, the three-dimensional cultures received 50 μl of fresh complete growth medium without or with specified reagents as listed in the figure descriptions. On Day 8 of culture, differential interference contrast (DIC) images were captured of 8 representative organoids from each well, using light microscopy at 30× objective (Olympus IX70, Canada). […] Number of smooth surfaced organoids without any protrusions, designated as “spherical” were counted out of eight representative images in each well and then percentage of spherical organoids in each condition were plotted in bar graphs. Each experiment was performed at least three independent times for statistical analyses.

lubricin (PRG4) mRNA = experiment: PRG4 mRNA expression in CAFs and ex vivo HCC specimens; assay type: cell-based, human
Procedure: RNA extraction and cDNA synthesis: […] of frozen ex-vivo treated HCC tissues were ground with a mortar-pestle in the presence of liquid nitrogen until a thin powder was obtained. The ground tissues were lysed with 0.5-1 ml of RLT buffer+1% (BME) and then processed according to the manufacturer's recommendations (RNeasy kit, Qiagen). […] The obtained RNA was assayed for quality and concentration using the NanoDrop 2000/2000c (Thermo Fisher Scientific). cDNA was synthetized using the High Capacity cDNA reverse transcription kit (Thermo Fisher Scientific), according to relative datasheet.
Real time PCR: One ng/μl of cDNA was used in total 20 μl reaction mix in the presence of 500 nM of each forward and reverse primer referred to a specific gene of interest, and 2×SYBR green master mix (Bio-Rad). The reaction was conducted in a CFX96 Touch Real-Time Detection System (Bio-Rad).
CAFs isolation: Immediately after surgical resection, HCC tumoral and peritumoral specimens were minced into 0.5-1 cm pieces and left in MACS Tissue Storage Solution (Miltenyi Biotec). The tissues were then further cut into smaller size pieces (1-2 mm), washed three times in Hanks balanced salt solution (HBSS), and then incubated in HBSS in the presence of type IV collagenase (Thermo Fisher Scientific) and 3 mM CaCl2 at 37° C. under gentle rotation for 4 hours. At the end of this step, the dissociation was mechanically facilitated by pipetting up-down the digested tissues with a large size orifice 50 ml pipette. The floating cells were collected and washed three times with HBSS and seeded in normal culture conditions in IMDM+20% FBS. The decanted, partially digested tissue specimens were subjected to a second round of digestion (as previously described). The resulting dissociated cells were washed with HBSS and cultured in IMDM+20% FBS. […] The presence of minimal contaminating non-fibroblastic cells (mostly cancerous hepatocytes, cholangiocytes and macrophages) was evaluated using antibodies to EpCAM, CD45, and CD11b.

[2] = test system: HCC cells (HLE, HLF, PLC/DC/19, Hep3B, PLC/PRF/5); experiment: 72-hour proliferation assay, all HCC cells; assay type: cell-based, human; conditions: Homo sapiens, same experimental conditions
Procedure: (§1) Proliferation assay: In 100 μl complete medium, 3,000 cells were seeded in wells of a 96-well plate and left overnight to allow complete attachment. The next day (at time t=0 hours), the medium was removed and replaced with 100 μl of fresh medium in the presence/absence of Sorafenib (2.5 μM), Regorafenib (2.5 μM), rhPRG4 (12.5 to 100 μg/ml). Dimethyl sulfoxide (DMSO) and PBS+0.01% Tween-20 were used as vehicles of Sorafenib/Regorafenib, and rhPRG4, respectively. Cells in triplicate wells for each cell line were fixed at t=0 hours with 4% paraformaldehyde (PFA, pH 7.6, 10 min incubation), then stained with crystal violet (CV) and thoroughly washed to remove the excess staining. After 72 hours, the cells were fixed by adding 100 μl of 4% PFA directly to the medium (2% final PFA concentration, 20 min incubation), and processed for CV staining as previously described. Then, 100 or 200 μl of 1% sodium dodecyl-sulphate were added to the wells and the plates were left under shaking until complete CV release from stained cells. Optical density was at 595 nm wavelength measured using a plate reader.

CD44-shRNA HCC cells = experiment: 72-hour proliferation assay, CD44-silenced HCC cells; assay type: cell-based, human; conditions: 2.5 μM drug; rhPRG4 0 to 100 μg/ml; p<0.05 to p<0.001
From the text: Stable CD44 silencing: HLE and HLF cell lines were transduced with lentiviral particles carrying control non-targeting (V), or specific CD44-targeting shRNA sequences (A to D), and selected with puromycin dihydrochloride (Thermo Fisher Scientific) to obtain stable CD44 silencing, according to manufacturer instructions (OriGene Technologies, Inc., Rockville, Md. 20850, USA). Control-shRNA sequence (V) and CD44-shRNA sequence B were used in all the experiments involving CD44 downregulation.
as §1, with “After 72 hours, the cells were fixed by adding 100 μl of 4% PFA directly to the medium (2% final PFA concentration, 20 min incubation), and processed for CV staining as previously described. Then, 100 or 200 μl of 1% sodium dodecyl-sulphate were added to the wells and the plates were left under shaking until complete CV release from stained cells.” left out

CD44-IgG1Fc = molecular target: T1, CD44-IgG1Fc (Homo sapiens, UniProt P16070); experiment: Direct ELISA: binding of coated macromolecules to CD44-IgG1Fc; conditions: for percentage binding to CD44 of enzyme-digested rhPRG4 compared to untreated control: coating 30 μg/mL, digestion 16 hours at 37° C.
T1 construct: purchased R & D systems
T1 sequence (P16070 with tags, fused parts or gaps limits assumed): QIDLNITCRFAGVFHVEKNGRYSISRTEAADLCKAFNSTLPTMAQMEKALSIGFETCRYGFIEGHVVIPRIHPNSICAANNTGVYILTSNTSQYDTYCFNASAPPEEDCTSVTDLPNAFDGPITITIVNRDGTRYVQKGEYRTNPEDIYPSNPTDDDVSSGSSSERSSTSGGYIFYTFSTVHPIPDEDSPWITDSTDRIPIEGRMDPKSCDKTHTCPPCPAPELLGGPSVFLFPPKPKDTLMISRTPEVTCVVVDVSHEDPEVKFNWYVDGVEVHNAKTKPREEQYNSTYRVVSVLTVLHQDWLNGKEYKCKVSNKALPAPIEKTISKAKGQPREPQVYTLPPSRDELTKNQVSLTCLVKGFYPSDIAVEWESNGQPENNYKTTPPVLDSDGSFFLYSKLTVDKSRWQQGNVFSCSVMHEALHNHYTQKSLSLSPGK
Procedure: High-binding microtiter plates (Corning, Sigma Aldrich, USA) were coated with rhPRG4 (Mr≅240 KDa), high molecular weight HA (HMW HA; Mr≅1,500 KDa) (R & D System, USA), medium molecular weight HA (MMW HA; Mr≅′300KDa) (R & D System) and vitronectin KDa) (Sigma Aldrich) at 400 μg/mL in PBS buffer (100 μL per well) overnight at 4° C. rhPRG4 is a full-length product produced by CHO-M cells (Lubris, Framingham, Mass., USA). Following washing with PBS+0.1% Tween 20, wells were blocked with 2% bovine serum albumin (BSA; 300 μL per well) for at least 2 hours at room temperature. CD44-IgG1Fc (R & D systems) or IgG1Fc (R & D systems), each at 1 μg/mL (100 μl per well), were added to the plate and incubated for 60 min at room temperature. Following washing with PBS+0.1% tween 20, anti-IgG1Fc-HRP (Sigma Aldrich) was added at 1:10,000 dilution (100 μL per well) and incubated for 60 min at room temp. Following washing with PBS+0.1% tween 20, the assay was developed using 1-step Turbo TMB ELISA reagent (ThermoScientific, USA) and absorbance was measured at 450 nm. The data represents an average of 4 independent assays, each with triplicate wells per group.
The concentration-dependent binding of rhPRG4, HMW HA and MMW HA to CD44 was performed by coating microtiter plates with 400, 200, 100, 20, 4, 2 and 0.1 μg/mL of the macromolecules. The assay was performed as described above. The absorbance values in the IgG1Fc wells were subtracted from the absorbance values in the CD44 IgG1Fc wells and the corrected CD44 IgG1Fc absorbance values were normalized to those of the 400 μg/mL rhPRG4 group and data was expressed as percentage binding to CD44. The concentration-dependent binding of rhPRG4, HMW HA and MMW HA to recombinant CD44 is depicted in FIG. 1B. […] The data represents an average of 4 independent assays, each with triplicate wells per group.
rhPRG4 was digested using sialidase A (Prozyme, USA), O-glycosidase (New England Biolabs, USA) or a combination of sialidase A and O-glycosidase for 16 hours at 37° C. In the sialidase A digestion, 12 μL of the enzyme (1U/200 μL) was added to rhPRG4 in a total reaction volume of 180 μL and a rhPRG4 final concentration of 300 μg/mL. In the O-glycosidase digestion, 4.8 μL of the enzyme (40million units/mL) was added to rhPRG4 in a total reaction volume of 180 μL and a rhPRG4 final concentration of 300 μg/mL under non-denaturing conditions. In the sialidase-A and O-glycosidase digestion, the enzymes were used in volumes identical to the ones stated above and incubated with rhPRG4 in a total reaction volume and final rhPRG4 concentration as stated above. The effect of sialidase-A and O-glycosidase digestions on rhPRG4 apparent molecular weight was determined by SDS-PAGE using 4-12% Bis-Tris gel (NuPage, life technologies, USA). A total of 20 μL of rhPRG4 or enzyme-digested rhPRG4 was run under reducing conditions ([…] for 60 min) followed by staining using Gelcode Blue Stain (Thermo Scientific, USA). Binding of enzymatically digested rhPRG4 to CD44 was compared to undigested rhPRG4 using the direct ELISA approach described above and using an rhPRG4 coating concentration of 30 μg/mL. Data represents the average of 4 independent experiments, each with triplicate wells per group.

MDA-MB-231 cells = experiment: In vitro trans-well invasion assay; assay type: cell-based, human; conditions: 100 pM TGFβ; 400 μg/mL LMWHA
Procedure: Overnight 0.2% FBS-containing DMEM incubated, i.e. serum-starved, MDA-MB-231 cells were used for the transwell invasion using polycarbonate filters (24-well insert, pore size 8 μm; BD Biosciences, Canada). Prior to addition of cells, each insert was placed within a well of a 24-well tissue culture plate and equilibrated with 0.5 mL serum-free DMEM, added both to the upper and lower chambers at 37° C. for 2 h. The equilibration media was then gently removed and upper chamber surface of the insert was coated with 50 μL of 3% Matrigel and allowed to solidify at 37° C. for 1 h. 1×10^5 serum-starved MDA-MB-231 cells were resuspended in 0.5 mL of serum-free DMEM and added to the upper Matrigel-coated chamber. 500 μL complete growth medium alone or containing specific reagents, as described in the respective figure descriptions, was added to the lower chambers. Cells were allowed to invade the matrix for 12 h at 37° C. after which non-adherent cells were removed by PBS washing of cell layers on the upper chamber three times. During the second wash a cotton tip applicator was used to gently scrape away the adherent cells on the upper surface of the membrane. Invading cells were fixed by immersing the transwell inserts in 100% methanol for 10 minutes at −20° C., followed by staining with 0.5% crystal violet dye (EMD Millipore, Canada) for 1 h at room temperature. Eight randomly chosen fields of each stained membrane were imaged at 10× objective of a DIC microscope (Olympus IX70) coupled to a digital camera. Cell numbers were obtained by counting the number of crystal violet stained cells in each field using a handheld counter. The average cell numbers for all images per treatment conditions were calculated and used for further statistical analysis. Each experiment was performed at least three independent times.

Molecule: Cc1cc(=O)oc2cc(O)ccc12 [4-MU, 4-methylumbelliferone, reference compound]
TGFβ-induced invasive growth of organoids ([1]; 100 pM TGFβ, 8-day, KI 10 μM): suppressed TGFβ-induced invasive growth

Molecule: NC(=O)c1ccc(-c2nc(-c3ccc4c(c3)OCO4)c(-c3ccccn3)[nH]2)cc1 [KI, SB431542, reference compound]
TGFβ-induced invasive growth of organoids ([1]; 100 pM TGFβ, 8-day, KI 10 μM): suppressed the TGFβ-induced invasive growth | LMWHA-induced invasive growth of organoids ([1]; LMWHA 10-400 μg/mL, 100 μg/mL rhPRG4, KI 10 μM): could not reverse the LMWHA effect

Molecule: Cc1cccc(-c2nn3c(c2-c2ccnc4ccc(C(N)=O)cc24)CCC3)n1 [LY2157299, galunisertib]
expression of lubricin in comparison to controls (lubricin (PRG4) mRNA; LY2157299 alone, 48 hours): downregulated the expression of lubricin | effect on TGFβ-enhanced expression of lubricin (lubricin (PRG4) mRNA; TGFβ plus LY2157299, 48 hours, p<0.01): offset this effect

IC50 [2]: ~5 µM
Molecule: CNC(=O)c1cc(Oc2ccc(NC(=O)Nc3ccc(Cl)c(C(F)(F)F)c3)c(F)c2)ccn1 [Regorafenib]
capacity in inhibiting cells proliferation in CD44 silenced cells compared to control cells (CD44-shRNA HCC cells): significantly reduced

IC50 [2]: ~5 µM
Molecule: CNC(=O)c1cc(Oc2ccc(NC(=O)Nc3ccc(Cl)c(C(F)(F)F)c3)cc2)ccn1 [Sorafenib]
capacity in inhibiting cells proliferation in CD44 silenced cells compared to control cells (CD44-shRNA HCC cells): significantly reduced

percentage binding to CD44 of enzyme-digested rhPRG4 compared to untreated control (CD44-IgG1Fc): significant increase
Molecule: O-glycosidase digested rhPRG4: rhPRG4 digested using O-glycosidase for 16 hours at 37° C.

Molecule: Sodium Hyaluronate [LMWHA, reference compound]
invasive growth of organoids, stimulus alone ([1]; 100 pM TGFβ, LMWHA 10, 100 or 400 μg/mL, 8-day): increase the proportion of invasive organoids | invasion of cells, stimulus alone vs untreated control (MDA-MB-231 cells): increased the proportion of invading cells

percentage binding to CD44 of enzyme-digested rhPRG4 compared to untreated control (CD44-IgG1Fc): significantly higher
Molecule: sialidase-A and O-glycosidase-digested rhPRG4: rhPRG4 digested using a combination of sialidase A and O-glycosidase

percentage binding to CD44 of enzyme-digested rhPRG4 compared to untreated control (CD44-IgG1Fc): significant increase
Molecule: sialidase-A digested rhPRG4: rhPRG4 digested using sialidase A for 16 hours at 37° C.

450 nm absorbance in the CD44-IgG1Fc group vs the IgG1Fc group (CD44-IgG1Fc; wells coated at 400 μg/mL, CD44-IgG1Fc or IgG1Fc at 1 μg/mL): no significant difference
Molecule: vitronectin: vitronectin (Sigma Aldrich), shares sequence homology with lubricin [reference compound]
